Measurements: patent US5965743A, “N-substituted imidazol derivative” (Nippon Soda Co., Ltd., priority 1994, dated 1999)
Where two headings read alike, the source gives them in different places.

Columns and labels:
[1] = tested on: biosynthesis of cholesterol; test: Inhibitory effect on biosynthesis of cholesterol in cell-free biosystem; type: biochemical, rat (SD-strain); details: cell-free rat liver enzyme system, 90 min, 37° C., pH 7.4; read-out: 50% Inhibitory Concentration (IC50), cholesterol biosynthesis
Protocol: Inhibitory Effect on Biosynthesis of Cholesterol in Cell-free Biosystem
(1) Preparation of Enzyme Reaction System
(§1) The preparation of the enzymatic system for the biosynthesis of cholesterol in rats was carried out according to the method described in Biochimica et Biophysica Acta, Vol.486, pp 70-81, 1977.
(§2) More particularly, SD-strain female rats weighing from […] were fed for 7 to 10 days with a diet containing 2% cholestyramine to enhance their biosynthetic activity of cholesterol. After killed the rats by means of depletion of blood in midnight, the livers thereof were removed and homogenized with a double volume of 0.1 M potassium phosphate buffer solution (pH 7.4) containing 15 mM nicotine amide and 2 mM magnesium chloride by using a loose fitting-type teflon homogenizer. The supernatant obtained by centrifuging the homogenate at 12,000×g for 30 min. was further centrifuged at 105,000×g for 90 min., thereby separating it to the microsome fraction and the supernatant fraction. The supernatant obtained were kept as the fraction resulting in the precipitation in 40-80% ammonium sulfate (hereinafter referred to as "soluble fraction"). Each of the soluble fraction and the microsome fraction were independently adjusted with 0.1 M potassium phosphate buffer solution (pH 7.4) to the volumes of 1 ml/g of liver and 1 ml/3 g of liver, respectively, and were kept and used in the subsequent tests as an enzyme solution for the mixing ratio of 16:1.
(2) Method for Measuring Cholesterol Biosynthesis Activity
(§3) Cholesterol biosynthesis activity was measured according to the method described in Biochimica Biophysica Acta, Vol.486, pp 70-81, 1977. 2 μl dimethylsulfoxide solution of the test compound were added to a solution composed of 50 μl of the enzyme solution prepared in (1) described above, 0.1 M potassium phosphate buffer solution (pH 7.4), 1 mM ATP, 5 mM glucose-1-phosphate, 6 mM glutathione, 6 mM magnesium chloride, 0.04 mM coenzyme A, 0.25 mM NAD, 0.25 mM NADP and 1 mM 2-^14 C-sodium acetate (111 MBq./mmol), and the resultant solution was adjusted to the whole volume of 0.2 ml and then allowed to a reaction for 90 min. at 37° C. while shaking. The reaction was then stopped by adding 1 ml of 15% ethanol solution of potassium hydroxide, and the solution was then heated for 1 hour at 75° C. After extracted unsaponificated products with hexane from the solution, the solution was then condensed and dried to the hard state and subsequently dissolved in small volume of a mixture of chloroform and methanol (mixing ratio; 1:2). The resultant chloroform-methanol solution was spotted on a pre-coated silica gel TLC plate, then developed with a developer composed of benzene and ethyl acetate (mixing ratio; 9:1). The cholesterol spot was then taken out from the plate, and the radient activity of the spot was measured by using a liquid scintillation counter. Based on the radio-activity measured, mthe 50% inhibitory concentration (IC50) of the compounds of the present invention were determined.

[2] = target: T1, squalene-2,3-oxide cyclase (Rattus norvegicus, UniProt P48450); test: Sterol amount synthesized in cell-free cholesterol biosynthesis system (squalene-2,3-epoxide accumulation); type: biochemical, rat (SD-strain); details: average of 6 results
T1 sequence (P48450 2-733): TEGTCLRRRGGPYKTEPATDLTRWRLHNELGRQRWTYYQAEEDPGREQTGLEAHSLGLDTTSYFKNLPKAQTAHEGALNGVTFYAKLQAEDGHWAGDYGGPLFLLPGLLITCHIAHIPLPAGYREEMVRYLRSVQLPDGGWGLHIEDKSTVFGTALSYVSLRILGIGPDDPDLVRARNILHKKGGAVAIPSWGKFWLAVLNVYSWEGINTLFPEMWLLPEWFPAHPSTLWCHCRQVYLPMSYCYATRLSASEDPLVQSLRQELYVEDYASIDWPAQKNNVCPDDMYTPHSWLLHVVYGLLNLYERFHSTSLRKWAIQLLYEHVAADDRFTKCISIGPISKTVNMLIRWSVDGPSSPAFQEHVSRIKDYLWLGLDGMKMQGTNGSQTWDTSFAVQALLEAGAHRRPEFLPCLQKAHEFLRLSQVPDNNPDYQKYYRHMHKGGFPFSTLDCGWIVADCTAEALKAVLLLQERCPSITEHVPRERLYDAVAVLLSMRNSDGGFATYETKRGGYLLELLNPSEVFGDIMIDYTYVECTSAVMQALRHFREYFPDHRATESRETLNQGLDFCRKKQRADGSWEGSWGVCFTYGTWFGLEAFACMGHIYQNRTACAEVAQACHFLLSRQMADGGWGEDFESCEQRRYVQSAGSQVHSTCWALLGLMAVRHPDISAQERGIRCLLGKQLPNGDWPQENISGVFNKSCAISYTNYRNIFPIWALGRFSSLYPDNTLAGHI
Protocol: as §1, §2, §3
On the other hand, after determining the position of ^14 C-squalene-2,3-epoxide on the TLC, which was produced due to the action of AMO 1618 (Calbiochem, USA), a squalene-2,3-oxidecyclase inhibitor, the spot containing squalene-2,3-epoxide […] was taken out and the radio-activity thereof was then determined by using a liquid scintillation counter.

[3] = tested on: Triton WR-1339-Induced Hyperlipemia Mice; test: Effect on serum lipid in Triton WR-1339-induced hyperlipemia mice; type: in vivo, mouse (Crj:ICR-strain); details: Mus musculus, po (3 x 33.3 mg/kg), average of 10 animals, 24 hours
Protocol: For this test, Crj:ICR-strain male mice aged 7-9 weeks were provided. […] After 24 hours, blood sampling was performed for each mouse from the abdominal aorta under anesthesia with ether, and the collected blood were placed into plastic test tubes being placed with a blood separating agent beforehand, then after 30 min. or 1 hour, the blood sampled was centrifuged at 10,000 rpm to obtain the serum. Total cholesterol value, HDL cholesterol value and total triglyceride value in the serum were respectively measured by using the measuring kits and automatic biochemical analyser.

[4] = 1 μM, control 2125 (Test 1, 1-17), 953 (Test 2, 2-47)
[5] = 1 μM, control 15448 (Test 1, 1-17), 9453 (Test 2, 2-47)
[6] = 1 μM, control 85102 (Test 1, 1-17), 53622 (Test 2, 2-47)
[7] = 3 μM, control 2125 (Test 1, 1-17), 953 (Test 2, 2-47)
[8] = 3 μM, control 15448 (Test 1, 1-17), 9453 (Test 2, 2-47)
[9] = 3 μM, control 85102 (Test 1, 1-17), 53622 (Test 2, 2-47)
[10] = 10 μM, control 2125 (Test 1, 1-17), 953 (Test 2, 2-47)
[11] = 10 μM, control 15448 (Test 1, 1-17), 9453 (Test 2, 2-47)
[12] = 10 μM, control 85102 (Test 1, 1-17), 53622 (Test 2, 2-47)
[13] = 30 μM, control 2125 (Test 1, 1-17), 953 (Test 2, 2-47)
[14] = 30 μM, control 15448 (Test 1, 1-17), 9453 (Test 2, 2-47)
[15] = 30 μM, control 85102 (Test 1, 1-17), 53622 (Test 2, 2-47)
[16] = read-out: % Change of Serum Lipid to Control Group: HDL Cholesterole
[17] = read-out: % Change of Serum Lipid to Control Group: Total Cholesterole
[18] = read-out: % Change of Serum Lipid to Control Group: Total glyceride

| Structure (SMILES) | IC50 [1] | change in vivo at 100 mg/kg [3, 16] | change in vivo at 100 mg/kg [3, 17] | change in vivo at 100 mg/kg [3, 18] | also measured |
| --- | --- | --- | --- | --- | --- |
| Cc1cc(OC(=O)N2CCCCC2)c(C(C)C)cc1[N+](C)(C)C [AMO 1618, reference compound] | 140 µM |  |  |  |  |
| c1ccc(CCCNc2ccc(-n3ccnc3)cc2)cc1 [Compound 1-17] | 1.5 µM | 78% | -29% | -46% | Sterol Amount Synthesized: Squalene-2,3-epoxide [2, 4]: 3238 dpm/90min/Assay; Sterol Amount Synthesized: Cholesterol [2, 5]: 15297 dpm/90min/Assay; Sterol Amount Synthesized: Total Amount Synthesized [2, 6]: 72069 dpm/90min/Assay; Sterol Amount Synthesized: Squalene-2,3-epoxide [2, 7]: 2102 dpm/90min/Assay; Sterol Amount Synthesized: Cholesterol [2, 8]: 8938 dpm/90min/Assay; Sterol Amount Synthesized: Total Amount Synthesized [2, 9]: 82446 dpm/90min/Assay; Sterol Amount Synthesized: Squalene-2,3-epoxide [2, 10]: 7382 dpm/90min/Assay; Sterol Amount Synthesized: Cholesterol [2, 11]: 6364 dpm/90min/Assay; Sterol Amount Synthesized: Total Amount Synthesized [2, 12]: 79733 dpm/90min/Assay; Sterol Amount Synthesized: Squalene-2,3-epoxide [2, 13]: 10914 dpm/90min/Assay; Sterol Amount Synthesized: Cholesterol [2, 14]: 3558 dpm/90min/Assay; Sterol Amount Synthesized: Total Amount Synthesized [2, 15]: 95990 dpm/90min/Assay; Sterol Amount Synthesized: Squalene-2,3-epoxide ([2]; 100 μM, control 2125 (Test 1)): 12736 dpm/90min/Assay; Sterol Amount Synthesized: Cholesterol ([2]; 100 μM, control 15448 (Test 1)): 1830 dpm/90min/Assay; Sterol Amount Synthesized: Total Amount Synthesized ([2]; 100 μM, control 85102 (Test 1)): 77489 dpm/90min/Assay |
| c1ccc(CCCCNc2ccc(-n3ccnc3)cc2)cc1 [Compound 1-20] | 0.7 µM |  |  |  |  |
| c1ccc(CCCCCCNc2ccc(-n3ccnc3)cc2)cc1 [Compound 1-24] | 2.6 µM |  |  |  |  |
| CN(CCCc1ccccc1)c1ccc(-n2ccnc2)cc1 [Compound 1-27] | 1.8 µM | 65% | -14% | -22% |  |
| c1ccc(OCCCNc2ccc(-n3ccnc3)cc2)cc1 [Compound 1-33] | 6.2 µM |  |  |  |  |
| c1ccc(OCCCCNc2ccc(-n3ccnc3)cc2)cc1 [Compound 1-35] | 2.2 µM |  |  |  |  |
| c1ccc(CCCOc2ccc(-n3ccnc3)cc2)cc1 [Compound 1-47] | 7 µM | 46% | -16% | -23% |  |
| CC(CCOc1ccc(-n2ccnc2)cc1)c1ccccc1 (stereo not drawn) [Compound 1-48] | 1.4 µM |  |  |  |  |
| c1ccc(CCCCOc2ccc(-n3ccnc3)cc2)cc1 [Compound 1-49, 1-[4-(4-phenylbutoxy)phenyl]imidazole] | 0.68 µM |  |  |  |  |
| c1ccc(CCCCCCOc2ccc(-n3ccnc3)cc2)cc1 [Compound 1-53] | 1.7 µM |  |  |  |  |
| c1ccc(OCCCOc2ccc(-n3ccnc3)cc2)cc1 [Compound 1-60] | 4.8 µM | 52% | -22% | -37% |  |
| c1ccc(OCCCCOc2ccc(-n3ccnc3)cc2)cc1 [Compound 1-61] | 4 µM |  |  |  |  |
| CCCCCCCCCCNc1ccc(-n2ccnc2)cc1 [Compound 1-115] | 10 µM | 22% | -17% | -25% |  |
| CCCCCCCCCCOc1ccc(-n2ccnc2)cc1 [Compound 1-119] | 9 µM |  |  |  |  |
| c1ccc(CCCOc2ccc(Cn3ccnc3)cc2)cc1 [Compound 2-47, 1-[4-(3-phenylpropyloxy)benzyl]imidazole] | 1.4 µM |  |  |  | Sterol Amount Synthesized: Squalene-2,3-epoxide [2, 4]: 221 dpm/90min/Assay; Sterol Amount Synthesized: Cholesterol [2, 5]: 5289 dpm/90min/Assay; Sterol Amount Synthesized: Total Amount Synthesized [2, 6]: 53803 dpm/90min/Assay; Sterol Amount Synthesized: Squalene-2,3-epoxide [2, 7]: 1280 dpm/90min/Assay; Sterol Amount Synthesized: Cholesterol [2, 8]: 6333 dpm/90min/Assay; Sterol Amount Synthesized: Total Amount Synthesized [2, 9]: 56335 dpm/90min/Assay; Sterol Amount Synthesized: Squalene-2,3-epoxide [2, 10]: 1836 dpm/90min/Assay; Sterol Amount Synthesized: Cholesterol [2, 11]: 4210 dpm/90min/Assay; Sterol Amount Synthesized: Total Amount Synthesized [2, 12]: 72823 dpm/90min/Assay; Sterol Amount Synthesized: Squalene-2,3-epoxide [2, 13]: 7126 dpm/90min/Assay; Sterol Amount Synthesized: Cholesterol [2, 14]: 3787 dpm/90min/Assay; Sterol Amount Synthesized: Total Amount Synthesized [2, 15]: 63661 dpm/90min/Assay |
| c1ccc(CCCCOc2ccc(Cn3ccnc3)cc2)cc1 [Compound 2-49, 1-[4-(4-phenylbutyloxy)benzyl]imidazole] | 1.2 µM | 20% | -16% | -10% |  |
| c1ccc(OCCOc2ccc(Cn3ccnc3)cc2)cc1 [Compound 2-59, 1-[4-(2-phenoxyethyloxy)benzyl]imidazole] | 21 µM |  |  |  |  |
| c1ccc(OCCCOc2ccc(Cn3ccnc3)cc2)cc1 [Compound 2-60] | 10 µM |  |  |  |  |
| O=S(=O)(CCCOc1ccc(Cn2ccnc2)cc1)c1ccccc1 [Compound 2-68, 1-[4-(3-benzenesulfonylpropyloxy)benzyl]imidazole] | < 1 µM |  |  |  |  |
| Cc1ccc(OCCCOc2ccc(Cn3ccnc3)cc2)cc1 [Compound 2-95, 1-{4-[3-(4-tolyloxy)propyloxy]benzyl} imidazole] | 2.4 µM |  |  |  |  |
| CC[C@H](C)C(=O)O[C@H]1C[C@H](O)C=C2C=C[C@H](C)[C@H](CC[C@@H](O)C[C@@H](O)CC(=O)O)[C@H]21 [Pravastatin, reference compound] |  | -8% | -16% | -28% |  |
